Measurements reported in patent US9730914B2, “3,5-diaminopyrazole kinase inhibitors” (Axikin Pharmaceuticals, Inc., priority 2014, dated 2017).

Experiments:
[1] = target: T1, kinase domain protein of RC kinase (RCK) (Homo sapiens, UniProt Q56UN5); assay: Kinase competition binding assay (Kd, qPCR readout), RC kinase; conditions: Kd class, read-out: RCK Activity Level
T1 construct: made in house; host or cells: E. coli BL21-derived host (T7 phage) or HEK-293
T1 sequence (Q56UN5 1061-1324 limits assumed): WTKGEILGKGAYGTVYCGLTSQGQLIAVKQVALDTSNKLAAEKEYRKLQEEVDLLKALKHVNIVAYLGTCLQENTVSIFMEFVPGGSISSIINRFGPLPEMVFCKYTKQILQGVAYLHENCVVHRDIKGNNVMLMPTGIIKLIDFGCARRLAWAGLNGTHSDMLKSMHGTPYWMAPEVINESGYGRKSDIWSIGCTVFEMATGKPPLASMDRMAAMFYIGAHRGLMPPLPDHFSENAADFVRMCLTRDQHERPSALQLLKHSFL
How it was run: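 Competition binding: DNA-tagged kinase (T7 phage or HEK-293-expressed) plus immobilized biotinylated ligand beads and compound, 1 h at room temperature, 1% DMSO. Bead-bound kinase eluted and quantified by qPCR. Kd from 11-point 3-fold dilution, top 30,000 nM, retested lower if below 0.5 nM.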

JAK3 = target: T2, JAK3 (Homo sapiens, UniProt P52333); assay: Kinase competition binding assay (Kd, qPCR readout), JAK3; conditions: for Kd: Kd class, JAK3, read-out: JAK3 Activity Level; for RCK:JAK3 selectivity ratio: ratio Kd (JAK3): Kd (RCK)
T2 construct: made in house; host or cells: E. coli BL21-derived host (T7 phage) or HEK-293
How it was run: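 Competition binding in which kinase, either T7 phage-tagged or HEK-293-expressed and DNA-tagged, was exposed to immobilized biotinylated ligand and test compound for 1 h at room temperature. Bead-bound kinase was eluted and quantified by qPCR. Kd came from 11-point 3-fold dilutions, top concentration 30,000 nM and 1% DMSO, repeated lower if below 0.5 nM.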

JAK2 = target: T3, JAK2 (Homo sapiens, UniProt O60674); assay: Kinase competition binding assay (Kd, qPCR readout), JAK2; conditions: for Kd: Kd class, JAK2, read-out: JAK2 Activity Level; for RCK:JAK2 selectivity ratio: ratio Kd (JAK2): Kd(RCK)
T3 construct: made in house; host or cells: E. coli BL21-derived host (T7 phage) or HEK-293
How it was run: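 Competition binding: DNA-tagged kinase (T7 phage or HEK-293-expressed), immobilized biotinylated ligand beads and compound in SeaBlock/PBS/Tween/DTT buffer, 1 hour at room temperature; bound kinase eluted and quantified by qPCR. Kd from 11-point 3-fold dilution, top 30,000 nM typically, final DMSO 1%.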

T3 sequence (O60674 840-1132 limits assumed): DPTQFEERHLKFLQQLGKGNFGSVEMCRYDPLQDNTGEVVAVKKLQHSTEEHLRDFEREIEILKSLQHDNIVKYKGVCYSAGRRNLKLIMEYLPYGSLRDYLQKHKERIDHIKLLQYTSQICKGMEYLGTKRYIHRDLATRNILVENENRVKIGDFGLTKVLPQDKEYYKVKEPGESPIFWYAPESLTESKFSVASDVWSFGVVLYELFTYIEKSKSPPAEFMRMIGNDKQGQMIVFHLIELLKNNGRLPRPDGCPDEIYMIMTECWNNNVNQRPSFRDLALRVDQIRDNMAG
T2 sequence (P52333 811-1124 limits assumed): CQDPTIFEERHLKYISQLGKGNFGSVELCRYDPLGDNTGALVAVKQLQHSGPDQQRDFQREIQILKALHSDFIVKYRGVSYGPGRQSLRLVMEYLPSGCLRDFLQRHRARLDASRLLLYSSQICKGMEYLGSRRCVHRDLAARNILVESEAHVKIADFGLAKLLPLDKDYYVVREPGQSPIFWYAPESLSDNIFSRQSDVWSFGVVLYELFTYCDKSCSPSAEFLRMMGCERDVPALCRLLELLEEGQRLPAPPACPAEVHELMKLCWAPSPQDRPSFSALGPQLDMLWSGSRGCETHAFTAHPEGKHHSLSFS

SMILES | Kd [1] | Kd (JAK3) | Kd (JAK2) | RCK:JAK3 selectivity ratio (JAK3) | RCK:JAK2 selectivity ratio (JAK2)
NC(=O)c1c(Nc2ccc(N3CCOCC3)c(F)c2)n[nH]c1NCc1ccc(O)cc1 [reference compound] | < 50 nM | < 50 nM | < 50 nM | – | –
CN1CCN(c2ccc(Nc3n[nH]c(NCc4ccc(O)cc4)c3C(N)=O)cc2)CC1 [reference compound] | < 50 nM | < 50 nM | < 50 nM | C (C represents 1<Kd (JAK3): Kd (RCK)<10) | C (C represents 1<Kd (JAK2): Kd (RCK)<10)
C[C@@H]1CN(c2ccc(Nc3n[nH]c(NCc4ccc(O)cc4)c3C(N)=O)cc2)C[C@H](C)O1 [reference compound] | < 50 nM | < 50 nM | < 50 nM | C (C represents 1<Kd (JAK3): Kd (RCK)<10) | D (D represents Kd(JAK2): Kd (RCK)<1)
Cc1cc(CNc2[nH]nc(Nc3ccc(NC(=O)c4ccc(F)cc4)cc3)c2C(N)=O)cc(C)c1O [Compound 53, 3-((4-(4-fluorobenzamido)phenyl)amino)-5-((4-hydroxy-3,5-dimethylbenzyl)amino)-1H-pyrazole-4-carboxamide] | 100 to 1000 nM | > 1000 nM | > 1000 nM | A (A represents Kd (JAK3): Kd (RCK)>100) | A (A represents Kd (JAK2): Kd (RCK)>100)
Cc1cc(Nc2n[nH]c(NCc3ccc(O)cc3)c2C(N)=O)cnc1N1CCOCC1 [reference compound] | < 50 nM | < 50 nM | < 50 nM | C (C represents 1<Kd (JAK3): Kd (RCK)<10) | D (D represents Kd(JAK2): Kd (RCK)<1)
Cc1cc(CNc2[nH]nc(Nc3ccc(-n4ccnc4)cc3)c2C(N)=O)cc(C)c1O [Compound 19, 3-((4-(1H-imidazol-1-yl)phenyl)amino)-5-((4-hydroxy-3,5-dimethylbenzyl)amino)-1H-pyrazole-4-carboxamide] | 100 to 1000 nM | > 1000 nM | > 1000 nM | A (A represents Kd (JAK3): Kd (RCK)>100) | A (A represents Kd (JAK2): Kd (RCK)>100)
NC(=O)c1c(Nc2ccc(N3CCC(Cl)CC3)cc2)n[nH]c1NCc1ccc(O)cc1 [reference compound] | < 50 nM | < 50 nM | < 50 nM | C (C represents 1<Kd (JAK3): Kd (RCK)<10) | D (D represents Kd(JAK2): Kd (RCK)<1)
Cc1cc(CNc2[nH]nc(Nc3ccc(N)cc3)c2C(N)=O)cc(C)c1O [Compound 47, 3-((4-aminophenyl)amino)-5-((4-hydroxy-3,5-dimethylbenzyl)amino)-1H-pyrazole-4-carboxamide] | > 1000 nM | > 1000 nM | > 1000 nM | C (C represents 1<Kd (JAK3): Kd (RCK)<10) | C (C represents 1<Kd (JAK2): Kd (RCK)<10)
Cc1cc(CNc2[nH]nc(Nc3ccc(N4CCN(C(C)C)CC4)cc3)c2C(N)=O)cc(C)c1O [Compound 1, 5-((4-hydroxy-3,5-dimethylbenzyl)amino)-3-((4-(4-isopropylpiperazin-1-yl)phenyl)amino)-1H-pyrazole-4-carboxamide] | < 50 nM | 100 to 1000 nM | 100 to 1000 nM | A (A represents Kd (JAK3): Kd (RCK)>100) | A (A represents Kd (JAK2): Kd (RCK)>100)
C[C@@H]1CC(c2ccc(Nc3n[nH]c(NCc4ccc(O)cc4)c3C(N)=O)cn2)C[C@H](C)O1 (stereo partly drawn) [reference compound] | < 50 nM | < 50 nM | < 50 nM | C (C represents 1<Kd (JAK3): Kd (RCK)<10) | C (C represents 1<Kd (JAK2): Kd (RCK)<10)
COc1cccc(Nc2n[nH]c(NCc3ccc(O)cc3)c2C(N)=O)c1 [reference compound] | < 50 nM | < 50 nM | < 50 nM | D (D represents Kd (JAK3): Kd(RCK)<1) | D (D represents Kd(JAK2): Kd (RCK)<1)
Cc1cc(CNc2[nH]nc(Nc3ccc(N4CCOCC4)c(Cl)c3)c2C(N)=O)cc(C)c1O [Compound 2, 3-((3-chloro-4-morpholinophenyl)amino)-5-((4-hydroxy-3,5-dimethylbenzyl)amino)-1H-pyrazole-4-carboxamide] | < 50 nM | > 1000 nM | 100 to 1000 nM | A (A represents Kd (JAK3): Kd (RCK)>100) | B (B represents 10<Kd(JAK2): Kd (RCK)<100)
NC(=O)c1c(Nc2ccc(CN3CCCC3)cc2)n[nH]c1NCc1ccc(O)cc1 [reference compound] | < 50 nM | < 50 nM | < 50 nM | D (D represents Kd (JAK3): Kd(RCK)<1) | D (D represents Kd(JAK2): Kd (RCK)<1)
COc1ccc(C(=O)Nc2ccc(Nc3n[nH]c(NCc4cc(C)c(O)c(C)c4)c3C(N)=O)cc2)cc1 [Compound 57, 5-((4-hydroxy-3,5-dimethylbenzyl)amino)-3-((4-(4-methoxybenzamido)phenyl)amino)-1H-pyrazole-4-carboxamide] | 50 to 100 nM | > 1000 nM | > 1000 nM | A (A represents Kd (JAK3): Kd (RCK)>100) | A (A represents Kd (JAK2): Kd (RCK)>100)
Cc1cc(CNc2[nH]nc(Nc3cccc(Cl)c3)c2C(N)=O)cc(C)c1O [reference compound] | > 1000 nM | > 1000 nM | > 1000 nM | C (C represents 1<Kd (JAK3): Kd (RCK)<10) | C (C represents 1<Kd (JAK2): Kd (RCK)<10)
Cc1cc(CNc2[nH]nc(Nc3ccc(CN4CCCC4)cc3)c2C(N)=O)cc(C)c1O [Compound 35, 5-((4-hydroxy-3,5-dimethylbenzyl)amino)-3-((4-(pyrrolidin-1-ylmethyl)phenyl)amino)-1H-pyrazole-4-carboxamide] | 50 to 100 nM | > 1000 nM | 100 to 1000 nM | B (B represents 10<Kd (JAK3): Kd (RCK)<100) | C (C represents 1<Kd (JAK2): Kd (RCK)<10)
Cc1cc(CNc2[nH]nc(Nc3ccc(CN4CCCCC4)cc3)c2C(N)=O)cc(C)c1O [Compound 45, 5-((4-hydroxy-3,5-dimethylbenzyl)amino)-3-((4-(piperidin-1-ylmethyl)phenyl)amino)-1H-pyrazole-4-carboxamide] | < 50 nM | 100 to 1000 nM | 100 to 1000 nM | B (B represents 10<Kd (JAK3): Kd (RCK)<100) | C (C represents 1<Kd (JAK2): Kd (RCK)<10)
Cc1cc(CNc2[nH]nc(Nc3ccc(N4CCN(Cc5ccccc5)CC4)cc3)c2C(N)=O)cc(C)c1O [Compound 31, 3-((4-(4-benzylpiperazin-1-yl)phenyl)amino)-5-((4-hydroxy-3,5-dimethylbenzyl)amino)-1H-pyrazole-4-carboxamide] | < 50 nM | > 1000 nM | > 1000 nM | B (B represents 10<Kd (JAK3): Kd (RCK)<100) | B (B represents 10<Kd(JAK2): Kd (RCK)<100)
CN(C)C1CCN(c2ccc(Nc3n[nH]c(NCc4ccc(O)cc4)c3C(N)=O)cc2)CC1 [reference compound] | < 50 nM | < 50 nM | < 50 nM | D (D represents Kd (JAK3): Kd(RCK)<1) | D (D represents Kd(JAK2): Kd (RCK)<1)
Cc1cc(CNc2[nH]nc(Nc3ccc(N4CCC(Cl)CC4)cc3)c2C(N)=O)cc(C)c1O [Compound 34, 3-((4-(4-chloropiperidin-1-yl)phenyl)amino)-5-((4-hydroxy-3,5-dimethylbenzyl)amino)-1H-pyrazole-4-carboxamide] | 50 to 100 nM | > 1000 nM | > 1000 nM | B (B represents 10<Kd (JAK3): Kd (RCK)<100) | B (B represents 10<Kd(JAK2): Kd (RCK)<100)
NC(=O)c1c(Nc2ccc(-n3cccc3)cc2)n[nH]c1NCc1ccc(O)cc1 [reference compound] | < 50 nM | < 50 nM | < 50 nM | C (C represents 1<Kd (JAK3): Kd (RCK)<10) | D (D represents Kd(JAK2): Kd (RCK)<1)
CC1CCN(C2CCN(c3ccc(Nc4n[nH]c(NCc5ccc(O)cc5)c4C(N)=O)cc3)CC2)CC1 [reference compound] | < 50 nM | < 50 nM | < 50 nM | D (D represents Kd (JAK3): Kd(RCK)<1) | C (C represents 1<Kd (JAK2): Kd (RCK)<10)
